In ChEMBL document CHEMBL5244269, “Improving metabolic stability and removing aldehyde oxidase liability in a 5-azaquinazoline series of IRAK4 inhibitors” (Bioorg Med Chem, 2020):

Assays:
Homo sapiens [1] = species: Homo sapiens; assay: Selectivity index, ratio of IC50 for inhibition of PI3Kdelta (unknown origin) to IC50 for inhibition of IRAK4 (unknown origin)
[2] = biological target: NT-3 growth factor receptor (Homo sapiens, UniProt Q16288); assay: Inhibition of TRKC (unknown origin) in presence of 50 uM ATP
Sequence of NT-3 growth factor receptor (Q16288 whole entry): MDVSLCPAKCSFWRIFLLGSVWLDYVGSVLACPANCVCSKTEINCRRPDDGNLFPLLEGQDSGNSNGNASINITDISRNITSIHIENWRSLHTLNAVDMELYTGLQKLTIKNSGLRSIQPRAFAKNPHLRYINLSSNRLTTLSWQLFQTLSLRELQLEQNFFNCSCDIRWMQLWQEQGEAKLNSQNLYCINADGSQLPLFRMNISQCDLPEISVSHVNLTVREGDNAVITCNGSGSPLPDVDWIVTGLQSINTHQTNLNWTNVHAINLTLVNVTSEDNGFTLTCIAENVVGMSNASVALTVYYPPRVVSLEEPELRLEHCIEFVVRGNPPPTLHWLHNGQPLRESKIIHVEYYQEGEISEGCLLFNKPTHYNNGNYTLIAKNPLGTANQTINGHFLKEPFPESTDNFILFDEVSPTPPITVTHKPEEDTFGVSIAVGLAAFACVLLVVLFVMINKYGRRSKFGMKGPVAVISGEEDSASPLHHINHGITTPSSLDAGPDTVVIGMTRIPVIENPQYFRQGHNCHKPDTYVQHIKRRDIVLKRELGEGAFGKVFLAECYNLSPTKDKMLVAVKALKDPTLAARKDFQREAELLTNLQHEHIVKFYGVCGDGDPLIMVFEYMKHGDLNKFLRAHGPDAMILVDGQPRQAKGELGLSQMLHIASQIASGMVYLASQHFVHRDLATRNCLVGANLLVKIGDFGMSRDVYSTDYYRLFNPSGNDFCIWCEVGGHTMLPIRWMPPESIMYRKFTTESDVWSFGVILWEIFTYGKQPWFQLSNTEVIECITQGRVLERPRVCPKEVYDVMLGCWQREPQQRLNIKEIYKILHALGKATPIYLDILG

Homo sapiens [3] = species: Homo sapiens; assay: Selectivity index, ratio of IC50 for inhibition of TRKA (unknown origin) to IC50 for inhibition of IRAK4 (unknown origin)
[4] = biological target: Interleukin-1 receptor-associated kinase 1 (Homo sapiens, UniProt P51617); assay: Inhibition of IRAK1 (unknown origin) in presence of 25 uM ATP
Sequence of Interleukin-1 receptor-associated kinase 1 (P51617 whole entry): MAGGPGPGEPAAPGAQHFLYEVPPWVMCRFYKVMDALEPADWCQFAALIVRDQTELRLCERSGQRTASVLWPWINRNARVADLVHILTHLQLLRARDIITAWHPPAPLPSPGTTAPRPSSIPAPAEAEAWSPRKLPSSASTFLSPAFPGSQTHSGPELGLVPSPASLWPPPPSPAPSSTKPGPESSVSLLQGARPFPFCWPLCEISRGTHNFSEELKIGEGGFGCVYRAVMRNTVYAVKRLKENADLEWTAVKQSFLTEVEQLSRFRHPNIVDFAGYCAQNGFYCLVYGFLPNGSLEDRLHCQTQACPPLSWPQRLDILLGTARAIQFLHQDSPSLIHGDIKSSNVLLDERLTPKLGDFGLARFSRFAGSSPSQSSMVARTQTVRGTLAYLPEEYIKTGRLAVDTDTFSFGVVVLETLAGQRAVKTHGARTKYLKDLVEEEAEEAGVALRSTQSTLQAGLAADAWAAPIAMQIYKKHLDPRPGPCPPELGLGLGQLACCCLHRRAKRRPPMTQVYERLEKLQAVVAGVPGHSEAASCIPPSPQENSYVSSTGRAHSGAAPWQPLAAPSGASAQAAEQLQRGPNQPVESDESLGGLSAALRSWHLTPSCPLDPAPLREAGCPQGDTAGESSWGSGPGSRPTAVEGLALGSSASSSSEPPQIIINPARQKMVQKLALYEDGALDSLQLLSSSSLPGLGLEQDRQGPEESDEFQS

[5] = biological target: Tyrosine-protein kinase BTK (Homo sapiens, UniProt Q06187); assay: Inhibition of BTK (unknown origin) in presence of 25 uM ATP
Sequence of Tyrosine-protein kinase BTK (Q06187 whole entry): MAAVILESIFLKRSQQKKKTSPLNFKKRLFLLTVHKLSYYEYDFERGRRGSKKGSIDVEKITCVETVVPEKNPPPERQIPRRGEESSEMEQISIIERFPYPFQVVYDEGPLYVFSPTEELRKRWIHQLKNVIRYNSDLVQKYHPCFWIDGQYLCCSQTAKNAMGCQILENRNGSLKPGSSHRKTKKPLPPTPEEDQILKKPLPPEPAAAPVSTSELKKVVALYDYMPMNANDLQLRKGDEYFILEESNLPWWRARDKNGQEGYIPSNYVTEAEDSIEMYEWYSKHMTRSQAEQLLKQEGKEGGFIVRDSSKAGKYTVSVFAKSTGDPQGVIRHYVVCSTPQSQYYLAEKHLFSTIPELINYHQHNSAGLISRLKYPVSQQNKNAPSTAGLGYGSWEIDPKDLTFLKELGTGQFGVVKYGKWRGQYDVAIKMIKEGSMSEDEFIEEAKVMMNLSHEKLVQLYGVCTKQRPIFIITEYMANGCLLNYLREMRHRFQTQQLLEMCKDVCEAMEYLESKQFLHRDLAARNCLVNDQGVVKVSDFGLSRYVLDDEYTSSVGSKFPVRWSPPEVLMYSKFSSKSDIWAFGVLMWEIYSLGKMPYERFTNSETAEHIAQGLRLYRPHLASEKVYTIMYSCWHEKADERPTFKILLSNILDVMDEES

[6] = biological target: High affinity nerve growth factor receptor (Homo sapiens, UniProt P04629); assay: Inhibition of TRKA (unknown origin) in presence of 400 uM ATP
Sequence of High affinity nerve growth factor receptor (P04629 whole entry): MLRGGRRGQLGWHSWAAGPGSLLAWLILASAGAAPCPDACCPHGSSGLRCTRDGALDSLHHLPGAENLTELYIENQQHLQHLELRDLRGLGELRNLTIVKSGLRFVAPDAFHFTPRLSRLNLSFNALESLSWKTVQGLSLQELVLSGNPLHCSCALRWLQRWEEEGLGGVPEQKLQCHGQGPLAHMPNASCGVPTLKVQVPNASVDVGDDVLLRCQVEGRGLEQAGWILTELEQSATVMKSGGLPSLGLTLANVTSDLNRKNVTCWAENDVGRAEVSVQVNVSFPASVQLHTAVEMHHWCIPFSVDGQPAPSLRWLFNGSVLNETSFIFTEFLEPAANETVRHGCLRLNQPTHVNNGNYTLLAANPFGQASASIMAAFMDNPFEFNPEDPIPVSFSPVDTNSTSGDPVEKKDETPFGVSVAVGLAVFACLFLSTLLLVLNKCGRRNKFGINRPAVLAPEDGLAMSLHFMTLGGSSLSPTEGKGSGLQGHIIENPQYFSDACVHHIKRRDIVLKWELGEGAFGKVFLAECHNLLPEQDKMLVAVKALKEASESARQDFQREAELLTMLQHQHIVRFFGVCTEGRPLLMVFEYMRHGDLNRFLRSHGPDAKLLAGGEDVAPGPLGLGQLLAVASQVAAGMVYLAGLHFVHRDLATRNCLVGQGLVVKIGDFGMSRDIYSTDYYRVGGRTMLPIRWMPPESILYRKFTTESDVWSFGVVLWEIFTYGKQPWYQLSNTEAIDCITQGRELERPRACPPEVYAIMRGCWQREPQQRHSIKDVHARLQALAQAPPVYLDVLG

[7] = Metabolic stability in human hepatocytes assessed as intrinsic clearance measured per 10^6 cells; type: ADME, cell-based, Hepatocyte; settings: read-out: CLH
[8] = Metabolic stability in human liver microsomes assessed as intrinsic clearance; type: ADME, Microsome; settings: read-out: CLH
Homo sapiens [9] = species: Homo sapiens; assay: Selectivity index, ratio of IC50 for inhibition of TRKB (unknown origin) to IC50 for inhibition of IRAK4 (unknown origin)
[10] = biological target: T1, Interleukin-1 receptor-associated kinase 4 (Homo sapiens, UniProt Q9NWZ3); assay: Inhibition of IRAK4 (unknown origin) phosphorylation by cell based assay
T1 sequence (Q9NWZ3 whole entry): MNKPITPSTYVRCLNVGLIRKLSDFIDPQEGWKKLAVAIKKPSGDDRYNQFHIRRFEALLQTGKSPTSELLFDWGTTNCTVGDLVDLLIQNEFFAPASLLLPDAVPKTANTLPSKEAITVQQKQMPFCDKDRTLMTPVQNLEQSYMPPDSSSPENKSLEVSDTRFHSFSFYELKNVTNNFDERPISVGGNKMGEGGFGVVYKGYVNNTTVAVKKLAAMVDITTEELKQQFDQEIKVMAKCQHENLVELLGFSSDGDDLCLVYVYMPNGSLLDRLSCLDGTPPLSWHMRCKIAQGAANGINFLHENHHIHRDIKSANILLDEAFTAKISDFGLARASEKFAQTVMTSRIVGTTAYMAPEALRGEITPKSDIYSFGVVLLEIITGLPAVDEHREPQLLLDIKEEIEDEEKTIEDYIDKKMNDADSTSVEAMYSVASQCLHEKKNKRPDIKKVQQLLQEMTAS

Homo sapiens [11] = species: Homo sapiens; assay: Selectivity index, ratio of IC50 for inhibition of BTK (unknown origin) to IC50 for inhibition of IRAK4 (unknown origin)
Homo sapiens [12] = species: Homo sapiens; assay: Selectivity index, ratio of IC50 for inhibition of TRKC (unknown origin) to IC50 for inhibition of IRAK4 (unknown origin)
[13] = Lipophilicity, LogD at pH 7.4 of the compound by shake flask method; type: physicochemical; settings: buffer
[14] = biological target: T2, Receptor-type tyrosine-protein kinase FLT3 (Homo sapiens, UniProt P36888); assay: Inhibition of FLT3 (unknown origin) in presence of 600 uM ATP
T2 sequence (P36888 whole entry): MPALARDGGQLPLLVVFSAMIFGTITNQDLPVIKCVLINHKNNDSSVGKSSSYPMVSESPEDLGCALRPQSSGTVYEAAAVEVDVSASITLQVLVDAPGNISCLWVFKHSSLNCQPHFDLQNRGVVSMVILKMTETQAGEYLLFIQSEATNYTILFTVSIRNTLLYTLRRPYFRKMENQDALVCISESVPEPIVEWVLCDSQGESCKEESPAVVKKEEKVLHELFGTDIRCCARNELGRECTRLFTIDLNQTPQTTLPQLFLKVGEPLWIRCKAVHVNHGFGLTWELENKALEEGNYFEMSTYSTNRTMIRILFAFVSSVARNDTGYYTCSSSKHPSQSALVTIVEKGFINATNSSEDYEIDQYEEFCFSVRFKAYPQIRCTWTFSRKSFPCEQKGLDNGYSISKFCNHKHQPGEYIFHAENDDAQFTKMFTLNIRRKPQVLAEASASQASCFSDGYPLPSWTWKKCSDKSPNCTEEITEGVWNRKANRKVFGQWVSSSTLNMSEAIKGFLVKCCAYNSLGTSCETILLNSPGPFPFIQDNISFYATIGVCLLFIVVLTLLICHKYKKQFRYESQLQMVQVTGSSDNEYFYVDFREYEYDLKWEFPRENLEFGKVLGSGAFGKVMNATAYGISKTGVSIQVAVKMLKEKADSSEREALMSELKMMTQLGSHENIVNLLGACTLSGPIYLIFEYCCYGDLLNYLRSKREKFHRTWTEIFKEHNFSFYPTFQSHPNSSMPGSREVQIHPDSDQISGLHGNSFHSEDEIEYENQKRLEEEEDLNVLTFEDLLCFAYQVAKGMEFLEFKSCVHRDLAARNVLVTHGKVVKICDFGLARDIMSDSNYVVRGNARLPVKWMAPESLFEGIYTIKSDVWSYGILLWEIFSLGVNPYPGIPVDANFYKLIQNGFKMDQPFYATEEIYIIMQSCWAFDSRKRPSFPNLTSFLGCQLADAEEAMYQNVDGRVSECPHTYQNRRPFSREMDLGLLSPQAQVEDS

Homo sapiens [15] = species: Homo sapiens; assay: Selectivity index, ratio of IC50 for inhibition of IRAK1 (unknown origin) to IC50 for inhibition of IRAK4 (unknown origin)
[16] = biological target: BDNF/NT-3 growth factors receptor (Homo sapiens, UniProt Q16620); assay: Inhibition of TRKB (unknown origin) in presence of 25 uM ATP
Sequence of BDNF/NT-3 growth factors receptor (Q16620 whole entry): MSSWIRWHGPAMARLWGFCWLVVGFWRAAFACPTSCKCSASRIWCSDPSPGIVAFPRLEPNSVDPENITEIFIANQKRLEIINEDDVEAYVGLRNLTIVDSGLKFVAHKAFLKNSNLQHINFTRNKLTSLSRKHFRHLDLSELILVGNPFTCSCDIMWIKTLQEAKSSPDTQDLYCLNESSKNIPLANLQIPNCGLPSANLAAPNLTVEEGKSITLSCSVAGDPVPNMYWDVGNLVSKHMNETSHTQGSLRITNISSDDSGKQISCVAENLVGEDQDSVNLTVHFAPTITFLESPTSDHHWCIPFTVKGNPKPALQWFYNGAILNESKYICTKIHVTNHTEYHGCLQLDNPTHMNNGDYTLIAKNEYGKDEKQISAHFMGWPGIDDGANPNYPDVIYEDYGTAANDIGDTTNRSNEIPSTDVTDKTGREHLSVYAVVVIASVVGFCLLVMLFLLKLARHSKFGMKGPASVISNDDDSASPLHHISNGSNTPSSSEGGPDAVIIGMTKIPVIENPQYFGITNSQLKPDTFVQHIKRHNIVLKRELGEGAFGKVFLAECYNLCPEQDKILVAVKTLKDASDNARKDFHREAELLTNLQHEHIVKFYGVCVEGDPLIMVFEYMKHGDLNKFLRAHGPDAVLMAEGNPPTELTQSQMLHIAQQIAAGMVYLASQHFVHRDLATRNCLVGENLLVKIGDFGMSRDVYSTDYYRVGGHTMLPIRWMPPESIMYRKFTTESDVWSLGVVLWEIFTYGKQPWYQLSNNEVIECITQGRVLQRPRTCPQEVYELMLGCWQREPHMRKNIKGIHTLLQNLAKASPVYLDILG

Homo sapiens [17] = species: Homo sapiens; assay: Selectivity index, ratio of IC50 for inhibition of FLT3 (unknown origin) to IC50 for inhibition of IRAK4 (unknown origin)
[18] = Metabolic stability in human cytosol assessed as intrinsic clearance; type: ADME, subcellular
[19] = biological target: T3, Phosphatidylinositol 4,5-bisphosphate 3-kinase catalytic subunit delta isoform (Homo sapiens, UniProt O00329); assay: Inhibition of PI3Kdelta (unknown origin) in presence of […] uM ATP
T3 sequence (O00329 whole entry): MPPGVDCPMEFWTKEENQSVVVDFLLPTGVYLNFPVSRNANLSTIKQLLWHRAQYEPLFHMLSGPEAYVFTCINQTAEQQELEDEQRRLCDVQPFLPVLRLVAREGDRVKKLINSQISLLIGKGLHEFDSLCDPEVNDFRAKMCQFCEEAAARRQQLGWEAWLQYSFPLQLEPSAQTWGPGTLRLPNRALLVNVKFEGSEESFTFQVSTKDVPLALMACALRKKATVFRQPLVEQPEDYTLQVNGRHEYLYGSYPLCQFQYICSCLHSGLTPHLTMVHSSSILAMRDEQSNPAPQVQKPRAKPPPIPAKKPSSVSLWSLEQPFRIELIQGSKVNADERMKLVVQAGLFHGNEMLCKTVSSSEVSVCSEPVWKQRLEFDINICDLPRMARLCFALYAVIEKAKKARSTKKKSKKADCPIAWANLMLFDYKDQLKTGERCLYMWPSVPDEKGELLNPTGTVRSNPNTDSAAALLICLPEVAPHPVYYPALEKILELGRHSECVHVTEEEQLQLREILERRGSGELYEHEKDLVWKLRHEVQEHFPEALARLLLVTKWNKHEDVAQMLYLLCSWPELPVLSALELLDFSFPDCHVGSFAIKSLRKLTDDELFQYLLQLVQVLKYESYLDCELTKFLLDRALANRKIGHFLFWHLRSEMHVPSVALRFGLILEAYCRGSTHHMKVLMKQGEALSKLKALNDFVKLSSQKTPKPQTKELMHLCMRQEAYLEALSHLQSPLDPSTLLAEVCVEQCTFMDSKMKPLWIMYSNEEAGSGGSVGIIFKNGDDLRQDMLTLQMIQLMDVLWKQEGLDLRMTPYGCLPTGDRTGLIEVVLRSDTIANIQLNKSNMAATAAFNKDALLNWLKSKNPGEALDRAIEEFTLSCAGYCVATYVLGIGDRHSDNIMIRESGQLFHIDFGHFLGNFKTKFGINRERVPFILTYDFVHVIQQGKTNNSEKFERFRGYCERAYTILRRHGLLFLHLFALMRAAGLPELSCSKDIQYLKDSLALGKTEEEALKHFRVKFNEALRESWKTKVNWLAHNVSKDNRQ

[20] = biological target: T1, Interleukin-1 receptor-associated kinase 4; assay: Inhibition of IRAK4 (unknown origin) in presence of ATP by enzymatic assay

Which Ratio IC50 (Homo sapiens [1]) does the source give for `CN1CCC(n2cc(Nc3nc(OC4(C)CC4)c4nc(-c5cncnc5)ccc4n3)cn2)CC1` here?
Its Ratio IC50 is 30.

And the IC50 [2]?
The IC50 was 36 nM.

What about the Ratio IC50 (Homo sapiens [3]) of the same molecule?
Its Ratio IC50 is 32.

And the IC50 [4]?
Its IC50 is 2 nM.

What about the IC50 [5] of the same molecule?
The IC50 was 44 nM.

And the IC50 [6]?
Its IC50 is 19 nM.

And the hepatocyte CLint [7]?
The hepatocyte CLint was 110 µL/min/1e6 cells.

And the microsomal CLint [8]?
Its microsomal CLint is 96 µL/min/mg.

And the Ratio IC50 (Homo sapiens [9])?
Its Ratio IC50 is 140.

And the IC50 [10]?
Its IC50 is 24 nM.

And the Ratio IC50 (Homo sapiens [11])?
The Ratio IC50 was 70.

What about the Ratio IC50 (Homo sapiens [12]) of the same molecule?
Its Ratio IC50 is 60.

And the logD [13]?
The logD was 2.

And the IC50 [14]?
Its IC50 is 1200 nM.

What about the Ratio IC50 (Homo sapiens [15]) of the same molecule?
Its Ratio IC50 is 3.

And the IC50 [16]?
The IC50 was 82 nM.

And the Ratio IC50 (Homo sapiens [17])?
The Ratio IC50 was over 1000.

And the microsomal CLint [18]?
Its microsomal CLint is 191 µL/min/mg.

And the IC50 [19]?
Its IC50 is 18 nM.

And the IC50 [20]?
The IC50 was 0.6 nM.
